The numbers were not newly measured in article PMC4546427, “Stereoselective Regulation of P-gp Activity by Clausenamide Enantiomers in Caco-2, KB/KBv and Brain Microvessel Endothelial Cells” (PLoS ONE, 2015), which cites them from elsewhere.

Like-named read-outs stand apart in the source and are kept apart here.

This data set relates to P-gp ATPase. More on the design: method as in PMID 9300798. The settings on record: cited from earlier work.

For the molecule `CC(=O)[C@H]1CC[C@H]2[C@@H]3CCC4=CC(=O)CC[C@]4(C)[C@H]3CC[C@]12C` [progesterone], the “Effect on P-gp ATPase activity” value is on record as “inhibited” (concentrations above 25 μmol/L) and “stimulated” (low concentration 6.3 μmol/L).
